Article PMC3842960, “Natural Stilbenoids Isolated from Grapevine Exhibiting Inhibitory Effects against HIV-1 Integrase and Eukaryote MOS1 Transposase In Vitro Activities” (PLoS ONE, 2013)

Tests used:
HIV-1 IN = HIV-1 IN (Human immunodeficiency virus type 1 group M subtype B, UniProt P04585); assay: HIV-1 IN in vitro concerted integration assay (processed or unprocessed donor DNA)
Mos1 transposase (MOS1) = target: T1, Mos1 transposase (MOS1) (Drosophila mauritiana, UniProt Q7JQ07); assay: MOS1 in vitro excision assay; assay type: biochemical, D. mauritiana; conditions: for inhibition at 25 µM: DMSO control as reference, read-out: inhibition of in vitro excision reaction; for IC50: concentration range, sigmoid dose-response fit
T1 construct: involving the full-length Mos1 transposase (MOS1) was recently solved; made in house
Experimental: (§1) Basic excision reaction mixtures contained 10 mM Tris-HCl (pH 9), 50 mM NaCl, 20 mM MgCl2, 0.5 mM EDTA, 0.5 mM DTT, 100 ng BSA, 600 ng of super-coiled pBC-3T3, and 80 nM MBP-MOS1 (added last) in a volume of 20 µl. Molecules (25 or 10 µM, as specified) or DMSO (2%) were added to the reaction mixtures before the transposase. The reactions were allowed to proceed at 30°C for 30 min before 2 µl of stop solution (loading buffer) were added. The reaction mixtures were then incubated at 65°C for 10 min. Each reaction was analysed by overnight electrophoresis at 2.7 V/cm on a TAE-buffered 1% agarose gel with ethidium bromide (0.3 mg/ml). After electrophoresis, the gel was photographed on a transilluminator. ImageGauge 4.22 software (Fujifilm) was used to quantify the bands. Each condition was tested at least twice.
The ability of the selected molecules to inhibit excision was tested in vitro using the pBC-3T3 plasmid as the transposon donor. MOS1 triggers the excision of the pseudo-Mos1 from the plasmid producing two linear DNA fragments, the transposon and the plasmid backbone, together with intermediate products (open circle plasmids which contained single strand nicks and linear plasmids which contained a double strand nick at one ITR). After excision, the transposon could be reintegrated, making it difficult to detect in electrophoresis. The activity of the molecules was measured by quantifying the plasmid backbone, the end product of the reaction. The assays were performed with final concentrations of 25 and 10 µM molecules. Controls correspond to assays performed without molecule but with DMSO. […] Reactions were performed at least twice for each selected molecules (leachianol G, leachianol F, quadrangularin A, hopeaphenol, vitisin B and pallidol) and the excision activity is reported in figure 7B . […] The six selected molecules were then tested for the integration step of Mos1 transposition.

MOS1 = target: T2, MOS1 (Drosophila mauritiana, UniProt Q7JQ07); assay: MOS1 in vitro activities, overall statements of the discussion; assay type: biochemical, D. mauritiana; conditions: for activity on MOS1: in vitro assays of MOS1 activities, discussion
T2 construct: involving the full-length Mos1 transposase (MOS1) was recently solved; made in house
Experimental: In vitro transposition reactions were performed using pBC-3T3 as both the donor DNA and the target, as previously described. Briefly, the basic transposition reaction mixtures contained 10 mM Tris-HCl (pH 9), 50 mM NaCl, 20 mM MgCl2, 0.5 mM EDTA, 5% glycerol, 5 ng/ml BSA, 600 ng pBC-3T3, and 80 nM purified MBP-MOS1 (added last) in a volume of 20 µl. Inhibitors (25 or 10 µM, as specified) or DMSO (2%) were added to the reaction mixtures before the transposase. The reactions were allowed to proceed for 30 min at 30°C. After phenol-chloroform extraction and ethanol precipitation, 10% of the reaction mixture was transformed in electro-competent JM109 E. coli (2 mm cuvette, 1.5 kV in a MicroPulser™BioRad). Appropriate dilutions of each reaction mixture were plated on LB-tetracycline (12.5 µg/ml) agar and LB-chloramphenicol (80 µg/ml) agar to score the transposition rate. The transposition rate was the number of Tet^R colonies divided by the number of Chloram^R plus Tet^R colonies. Each condition was done at least three times in independent experiments.
as §1
These assays were performed using pre-cleaved 3′ITRs (PC-ITR), i.e. ITRs in the configuration expected after excision. Double-strand ITRs were obtained by annealing equimolar amounts of 70-NTS-PN (5′[…]3′) and 70-TS-PC (5′[…]3′) single-strand oligonucleotides. Prior to annealing, the transferred strand (70-TS-PC) was 5′-end labelled using T4 polynucleotide kinase (Promega) and γ-^32P-ATP following the manufacturer's instructions. Oligonucleotides were provided by Eurofins MWG Biotech (Germany) or Eurogentec (Belgium). Reaction mixtures containing 10 mM Tris-HCl (pH 9), 50 mM NaCl, 1 mM DTT, 5% glycerol, 100 ng BSA, 100 nM of labelled PC-ITR and 100 nM MBP-MOS1 in a final volume of 20 µl were incubated at 30°C for 30 min. The pBC plasmid (which contained the cat gene, a hot-spot for Mos1 insertion) was then added to 30 ng/µL along with 5 mM MgCl2. Molecules (25 or 10 µM, as specified) or DMSO (2%) were added to the reaction mixtures along with the target DNA to estimate their effect on integration. Reactions were carried out for 3 hours at 30°C. 0.1 mg/ml proteinase K and 0.1% SDS were added to stop the reaction. DNA products were purified by phenol-chloroform extraction and ethanol precipitated using standard techniques. DNA products were resuspended in DNA loading buffer, then separated onto a 1% agarose gel in 1X TAE (Tris Acetate EDTA) buffer. The gel was dried onto a nitrocellulose membrane (Hybond N+, GE Healthcare), scanned using a Storm, and analysed with ImageQuant software. Signals were quantified using ImageQuant software. Efficiency of integration was calculated as the intensity of the integration signal divided by the intensity of free target signal plus integration signal. Each condition was tested at least twice.
All molecules were also tested in in vitro assays reproducing integration and excision reactions catalysed by MOS1. […] In contrast, E-resveratrol and E-ε-viniferin glucoside, which act more specifically on HIV-1 3′processing reaction, and E-piceid and E-pterostilbene, which is more efficient on the integration reaction, were not active on MOS1.

T1 sequence (Q7JQ07 whole entry): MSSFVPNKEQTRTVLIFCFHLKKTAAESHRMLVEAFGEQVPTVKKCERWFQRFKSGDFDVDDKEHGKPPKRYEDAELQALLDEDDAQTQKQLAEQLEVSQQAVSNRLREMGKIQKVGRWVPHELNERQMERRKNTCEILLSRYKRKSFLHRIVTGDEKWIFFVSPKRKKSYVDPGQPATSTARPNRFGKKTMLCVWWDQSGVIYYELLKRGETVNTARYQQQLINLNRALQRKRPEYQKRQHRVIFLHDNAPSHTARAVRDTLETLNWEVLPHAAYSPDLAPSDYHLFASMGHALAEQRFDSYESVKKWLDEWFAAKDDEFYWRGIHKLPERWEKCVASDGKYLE
T2 sequence (Q7JQ07 whole entry): as above

Row | Structure (SMILES) | inhibition at 10 µM (HIV-1 IN; read-out: inhibition of concerted integration) [%] | inhibition at 25 µM (Mos1 transposase (MOS1)) [%] | IC50 (Mos1 transposase (MOS1)) [µM] | activity on MOS1 (MOS1) | IC50 (MOS1; summary of the discussion) [µM] | inhibition of concerted integration from processed and unprocessed donor (HIV-1 IN; increasing concentrations)
1 | Oc1ccc([C@@H]2c3c(O)cc(O)cc3[C@H]3c4c(cc(O)cc4C2C2c4cc(O)cc5c4[C@H](c4cc(O)cc(O)c4[C@H]2c2ccc(O)cc2)[C@@H](c2ccc(O)cc2)O5)O[C@@H]3c2ccc(O)cc2)cc1 (stereo partly drawn) [hopeaphenol] | < 5 | > 50 | 8.5 | selectively active on MOS1 | 6 to 8 | –
2 | Oc1ccc([C@@H]2c3c(O)cc(O)cc3[C@H]3[C@H](c4ccc(O)cc4)c4c(O)cc(O)cc4[C@@H]23)cc1 [pallidol] | – | > 50 | 8 | also active against MOS1 activities | – | inhibited both activities
